The text below walks through data of PubChem BioAssay (NCI).

Test systems include NCI-H522 lung; HCT-116 colon; UACC-257 melanoma; OVCAR-8 ovarian; OVCAR-3 ovarian; OVCAR-5 ovarian; NCI-H460 lung; NCI-H23 lung; EKVX NSCLC; LOX IMVI melanoma.
What all share (test): DTP human tumour cell line panel, 48 h

Each structure is given as a SMILES string.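 Five compound concentrations were applied to cells in 96-well plates for 48 hours; endpoints were derived by simple linear interpolation of the resulting dose-response curve. GI50 marks 50% less growth. TGI: concentration producing complete growth inhibition.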

The GI50 is the concentration that inhibits growth by half. The term TGI denotes the concentration giving total growth inhibition. Consider `N#Cc1c(Oc2ccc(F)c(NC(=O)Cc3cccc(C(F)(F)F)c3)c2)ccc2nc(NC(=O)C3CC3)sc12`, for which the GI50 in the test on NCI-H522 lung was 0.942 µM; in the test with HCT-116 colon, 0.251 µM; with UACC-257 melanoma, 0.0253 µM; in the test with OVCAR-8 ovarian, 0.731 µM; in the test with OVCAR-3 ovarian it was 2.3 µM; with OVCAR-5 ovarian it was 0.412 µM. Further, the GI50 is 0.378 µM in the test with NCI-H460 lung and 0.714 µM in the test on NCI-H23 lung. The TGI is greater than 25 µM in the test with NCI-H522 lung; greater than 100 µM with HCT-116 colon; 0.203 µM in the test with UACC-257 melanoma; greater than 100 µM in the test with OVCAR-8 ovarian; greater than 100 µM in the test with OVCAR-3 ovarian; greater than 100 µM in the test with OVCAR-5 ovarian. Moreover, the total growth inhibition concentration (TGI) in the test on NCI-H460 lung and with NCI-H23 lung was greater than 100 µM throughout.
As to `COc1cnc2c(c1)C(=O)c1c-2n(CCCN2CCN(CCO)CC2)c(=O)c2cc([N+](=O)[O-])ccc12`, the GI50 in the test with NCI-H522 lung is 0.499 µM; in the test with UACC-257 melanoma it was 2.26 µM; in the test on OVCAR-8 ovarian, 1.39 µM; in the test with EKVX NSCLC, 1.8 µM; with LOX IMVI melanoma it was 1.08 µM; in the test with OVCAR-3 ovarian, 1.46 µM. Moreover, the GI50 in the test with OVCAR-5 ovarian was 19.5 µM; with NCI-H460 lung, 0.267 µM; in the test with NCI-H23 lung, 1.27 µM. The TGI with NCI-H522 lung stood at 2.89 µM; with UACC-257 melanoma, 6.87 µM; in the test with OVCAR-8 ovarian it was 5.03 µM; with EKVX NSCLC, 4.23 µM; with LOX IMVI melanoma, 2.51 µM; in the test on OVCAR-3 ovarian, 3.12 µM. Further, the TGI in the test on OVCAR-5 ovarian was found to be 37.2 µM; with NCI-H460 lung it was 1.45 µM; with NCI-H23 lung, 3.33 µM.
With `C[C@@H](Oc1cc(-c2cnn(C3CC4(CCCNC4)C3)c2)cnc1N)c1c(Cl)ccc(F)c1Cl` (some centres not stated), the GI50 with NCI-H522 lung is 1.35 µM; with HCT-116 colon, 0.741 µM; in the test with UACC-257 melanoma it was 1.45 µM; in the test with OVCAR-8 ovarian, 2.06 µM; with LOX IMVI melanoma, 1.17 µM; in the test on OVCAR-3 ovarian, 2.02 µM. Further, the figures for the GI50 in the test on OVCAR-5 ovarian, with NCI-H460 lung and with NCI-H23 lung were 1.29 µM, 0.826 µM and 1.14 µM, respectively. Moreover, the TGI in the test on NCI-H522 lung stood at 2.79 µM; in the test on HCT-116 colon, 2.23 µM; in the test on UACC-257 melanoma it was 2.88 µM; with OVCAR-8 ovarian it was 5.93 µM; in the test on LOX IMVI melanoma it was 2.5 µM; in the test on OVCAR-3 ovarian it was 5.08 µM. Besides, the TGI in the test with OVCAR-5 ovarian came out at 4.93 µM; in the test with NCI-H460 lung it was 2.53 µM; in the test on NCI-H23 lung, 3.41 µM.
In the case of `CCc1oc2ccc(OC)c3c2c1C=CC=C3`, the TGI in the test with NCI-H522 lung, with UACC-257 melanoma, with OVCAR-8 ovarian, in the test on EKVX NSCLC, with LOX IMVI melanoma and in the test with OVCAR-3 ovarian was greater than 100 µM each time. For the same compound, the TGI in the test with OVCAR-5 ovarian, in the test on NCI-H460 lung and in the test with NCI-H23 lung was greater than 100 µM throughout.
Turning to `Oc1[nH]c2ccc(Cl)cc2c1/C=c1/ccc2c(c1)N=C(c1cc(F)cc(F)c1)N=2`, the GI50 with NCI-H522 lung is 2.14 µM; in the test on EKVX NSCLC it was 27.7 µM; with LOX IMVI melanoma it was 3.52 µM; with OVCAR-3 ovarian, 2.26 µM; in the test on OVCAR-5 ovarian it was greater than 100 µM; in the test on NCI-H23 lung, 5.01 µM. Also, the TGI was 5.74 µM in the test on NCI-H522 lung; greater than 100 µM in the test on EKVX NSCLC; greater than 100 µM in the test on LOX IMVI melanoma; 5.73 µM in the test on OVCAR-3 ovarian; greater than 100 µM in the test with OVCAR-5 ovarian; greater than 100 µM in the test with NCI-H23 lung.
`O=C(NO)c1cnc(N2CCN(S(=O)(=O)c3ccc4ccccc4c3)CC2)nc1`: the GI50 is 0.02 µM in the test with NCI-H522 lung; 0.03 µM in the test on HCT-116 colon; 0.0249 µM in the test on UACC-257 melanoma; 0.0276 µM in the test on OVCAR-8 ovarian; 0.0955 µM with OVCAR-3 ovarian; 0.0394 µM with OVCAR-5 ovarian. For the same compound, the figures for the GI50 in the test with NCI-H460 lung and in the test on NCI-H23 lung were 0.0535 µM and 0.103 µM, respectively. Moreover, the TGI in the test with NCI-H522 lung came to 0.104 µM; in the test with HCT-116 colon, 10.1 µM; in the test on UACC-257 melanoma it was 0.188 µM; in the test with OVCAR-8 ovarian it was 1.92 µM; with OVCAR-3 ovarian, 0.386 µM; in the test with OVCAR-5 ovarian it was 10.6 µM. The TGI with NCI-H460 lung came out at 11.9 µM; in the test on NCI-H23 lung it was 0.897 µM.
`CC12C(=O)N(CCN)C(=O)C1C1c3ccccc3C2c2ccccc21` (configuration not stated): the TGI in the test on NCI-H522 lung, in the test on HCT-116 colon, in the test with UACC-257 melanoma, in the test with OVCAR-8 ovarian, in the test with EKVX NSCLC and with OVCAR-3 ovarian was greater than 100 µM throughout. Also, the concentration for total growth inhibition (TGI) in the test on OVCAR-5 ovarian, in the test with NCI-H460 lung and in the test with NCI-H23 lung was greater than 100 µM each time.
Turning to `CC(C)CNc1nc(N=[N+]=[N-])nc(NCC(C)C)n1`, the GI50 in the test with NCI-H522 lung, in the test on HCT-116 colon, in the test on UACC-257 melanoma, in the test with OVCAR-8 ovarian, with LOX IMVI melanoma and in the test on OVCAR-3 ovarian was greater than 10 µM throughout. The GI50 in the test with OVCAR-5 ovarian, in the test on NCI-H460 lung and with NCI-H23 lung was greater than 10 µM throughout. Moreover, the TGI with NCI-H522 lung, in the test with HCT-116 colon, in the test with UACC-257 melanoma, with OVCAR-8 ovarian, in the test with LOX IMVI melanoma and with OVCAR-3 ovarian was greater than 10 µM each time. The TGI with OVCAR-5 ovarian, with NCI-H460 lung and with NCI-H23 lung was greater than 10 µM throughout.
`N#CC12Cc3ccc4c(c3-c3cccc(c31)CCN2C(=O)c1ccccc1)OCO4` (configuration not stated): the TGI in the test on HCT-116 colon, with UACC-257 melanoma, with OVCAR-8 ovarian, in the test with EKVX NSCLC, in the test with LOX IMVI melanoma and with OVCAR-3 ovarian was greater than 100 µM each time. Also, the TGI with OVCAR-5 ovarian and in the test on NCI-H23 lung was greater than 100 µM each time.
`CCOc1ccc(NC(=O)CCC(=O)NN)cc1`: the TGI with NCI-H522 lung, in the test with UACC-257 melanoma, in the test with OVCAR-8 ovarian, with EKVX NSCLC, with LOX IMVI melanoma and in the test with OVCAR-3 ovarian was greater than 100 µM throughout. Besides, the TGI in the test with OVCAR-5 ovarian, with NCI-H460 lung and in the test on NCI-H23 lung was greater than 100 µM in each case.
On to `Cc1cccc(N=C2NC(=O)C(CC(=O)Nc3ccc(Cl)cc3C)S2)c1` (configuration not stated), for which the concentration for total growth inhibition (TGI) in the test on NCI-H522 lung, in the test with UACC-257 melanoma, in the test on OVCAR-8 ovarian, with EKVX NSCLC, with LOX IMVI melanoma and in the test on OVCAR-3 ovarian was greater than 100 µM each time. For the same compound, the TGI with OVCAR-5 ovarian, in the test on NCI-H460 lung and with NCI-H23 lung was greater than 100 µM each time.
